{"source": "patent EP2982680B1", "about": "“PROTAMINE PEPTIDOMIMETIC, AND PHARMACEUTICALLY ACCEPTABLE SALTS AND USE THEREOF” (Academy of Military Medical Sciences, priority 2013, dated 2014)", "key": {"[1]": {"conditions": "amino acid; cited from earlier work"}, "[2]": {"experiment": "Water solubility of synthesized peptides"}, "[3]": {"tested_on": "heparin", "experiment": "Antagonism of protamine-like peptides against heparin anticoagulation in vitro (heparin neutralization, rabbit whole blood clotting)", "set-up": "species or system New Zealand rabbits", "conditions": "for Amount of neutralized heparin (U/mg) Mean ± SD: average from five tests; for Amount of neutralized heparin (U/mg) Mean ± SD / Clotting time / Amount of neutralized heparin (U/mg) 1 / Amount of neutralized heparin (U/mg) 2 / Amount of neutralized heparin (U/mg) 3 / Amount of neutralized heparin (U/mg) 4 / Amount of neutralized heparin (U/mg) 5: rabbit whole blood added with heparin; for I (Anti-heparin index): concentration of polypeptide/1 unit of heparin, lower index = better antagonism; for Clotting time: 37 °C, blank control 10.62±0.49; for Amount of neutralized heparin (U/mg) 1: repeat 1 of 5; for Amount of neutralized heparin (U/mg) 1 / Amount of neutralized heparin (U/mg) 2 / Amount of neutralized heparin (U/mg) 3 / Amount of neutralized heparin (U/mg) 4 / Amount of neutralized heparin (U/mg) 5: test sample 1 mg per mL; for Amount of neutralized heparin (U/mg) 2: repeat 2 of 5; for Amount of neutralized heparin (U/mg) 3: repeat 3 of 5; for Amount of neutralized heparin (U/mg) 4: repeat 4 of 5; for Amount of neutralized heparin (U/mg) 5: repeat 5 of 5", "from_the_text": "Reference standard of heparin was exactly weighed and then dissolved into several solutions with different concentrations by adding 0.9% sodium chloride solution according to the marked potency. The increment of heparin units per mL between two solutions having adjacent concentrations should be similar with no more than five units.\nThe test sample was the protamine-like peptide. If the test sample was in a powder form, it was accurately weighed on the basis of dry sample. Then, a solution of 0.9% sodium chloride was added thereto to provide a solution containing 1 mg of test sample per mL.\nEight small dry clean teat tubes with the same diameter (0.8 × 3.8 cm) were picked. Tube 1 and Tube 8 were used as the blank control into which 0.2 mL of 0.9% sodium chloride solution was added. Tube 2 to Tube 7 were used as the ones with test samples into each of which 0.1 ml of test solution was added together with 0.1 ml of heparin standard dilution having one concentration mentioned above. The mixture was well mixed immediately. An appropriate amount (0.8 ml) of whole blood freshly drawn from rabbits was added into these eight test tubes described above and then well mixed immediately to avoid generation of bubbles. Timing began at that time and the test tubes were all placed in a thermostatic water bath at 37 ± 0.5 °C. The interval between blood sampling and tube incubation in the thermostatic water bath should not be longer than two minutes. If the plasma was used, then 0.7 mL of plasma was added to each of the test tubes described above and then the test tubes were placed into a thermostatic water bath at 37 ± 0.5 °C to warm up for 5 to 10 minutes. Then, into each test tube, 0.1 mL of 1% calcium chloride solution was added and immediately mixed to avoid generation of bubbles. At that time, timing began. The test tubes were observed and the time until coagulation was recorded.\nThe clotting time in one control tube should not be more than 1.35 times longer than that in the other control tube. Among test tubes where the clotting time was no longer than 150% of the average coagulating time in two control tubes, the tube with the highest concentration of heparin was used as the endpoint tube.\nThe test was repeated for five times. The concentration of heparin in the endpoint tube was measured in all five tests, and the deviation was not allowed to be higher than 10 units. The average from five tests was deemed as the number of units of the heparin neutralized by 1 mg of the test sample (dry product) (the amount of neutralized heparin).\nThe anticoagulant time of heparin, i.e. the clotting time from the addition of the series of protamine-like peptides, were recorded where the clotting time in tubes with plasma but not heparin was considered as the control clotting time. The average value in each coagulation test was calculated, and ratio of the concentration in nmol of the added potamine-like peptide to 1 IU of neutralized heparin was regarded as the anti-heparin index (I) of the protamine-like peptide. Anti-heparin index = concentration of polypeptide/1 unit of heparin (nmol/U). [formula]"}}, "note": "Where a SMILES comes first, the peptide text is derived from it. Where no end group is shown, it is not given here.", "data": [{"compound": "N=C(N)NCCC[C@H](N)C(=O)O", "note": "[Arginine]", "values": [{"measurement": "isoelectric point (pI)", "setting": "[1]", "value": 10.76}]}, {"compound": "N[C@@H](Cc1c[nH]cn1)C(=O)O", "note": "[Histidine]", "values": [{"measurement": "isoelectric point (pI)", "setting": "[1]", "value": 7.59}]}, {"compound": "NCCCC[C@H](N)C(=O)O", "note": "[Lysine]", "values": [{"measurement": "isoelectric point (pI)", "setting": "[1]", "value": 9.74}]}, {"compound": "N=C(N)NCCC[C@H](NC(=O)[C@H](CCCNC(=N)N)NC(=O)[C@@H](N)CCCNC(=N)N)C(=O)O", "note": "[R3, (R)3] (H-Arg-Arg-Arg-OH)", "values": [{"measurement": "water solubility", "setting": "[2]", "value": "good water solubility"}]}, {"compound": "N=C(N)NCCC[C@H](NC(=O)[C@H](CCCNC(=N)N)NC(=O)[C@H](CCCNC(=N)N)NC(=O)[C@H](CCCNC(=N)N)NC(=O)[C@H](CCCNC(=N)N)NC(=O)[C@H](CCCNC(=N)N)NC(=O)[C@@H](N)CCCNC(=N)N)C(=O)O", "note": "[R7, (R)7]", "values": [{"measurement": "water solubility", "setting": "[2]", "value": "good water solubility"}]}, {"compound": "N=C(N)NCCC[C@H](NC(=O)[C@H](CCCNC(=N)N)NC(=O)[C@H](CCCNC(=N)N)NC(=O)[C@H](CCCNC(=N)N)NC(=O)[C@H](Cc1c[nH]cn1)NC(=O)[C@H](CCCNC(=N)N)NC(=O)[C@H](CCCNC(=N)N)NC(=O)[C@H](CCCNC(=N)N)NC(=O)[C@H](CCCNC(=N)N)NC(=O)[C@H](CCCNC(=N)N)NC(=O)[C@H](CCCNC(=N)N)NC(=O)[C@H](CCCNC(=N)N)NC(=O)[C@H](CCCNC(=N)N)NC(=O)[C@H](CCCNC(=N)N)NC(=O)[C@@H](N)CCCNC(=N)N)C(=O)O", "note": "[R15-5]", "values": [{"measurement": "water solubility", "setting": "[2]", "value": "good water solubility"}]}, {"compound": "KKKKKKKKKKKKKKK [K15, (K)15]", "values": [{"measurement": "water solubility", "setting": "[2]", "value": "good water solubility"}]}, {"compound": "RRRRR [R5, (R)5]", "values": [{"measurement": "water solubility", "setting": "[2]", "value": "good water solubility"}]}, {"compound": "RRRRRRHRRRRRRRR [R15-8]", "values": [{"measurement": "Amount of neutralized heparin (U/mg) Mean ± SD", "setting": "[3]", "value": "108.4±1.32", "unit": "U/mg"}, {"measurement": "I (Anti-heparin index)", "setting": "[3]", "value": 3.93, "unit": "nmol/U"}, {"measurement": "Clotting time", "setting": "[3]", "value": "14.35 ± 0.38", "unit": "min"}, {"measurement": "Amount of neutralized heparin (U/mg) 1", "setting": "[3]", "value": 110, "unit": "U/mg"}, {"measurement": "Amount of neutralized heparin (U/mg) 2", "setting": "[3]", "value": 105, "unit": "U/mg"}, {"measurement": "Amount of neutralized heparin (U/mg) 3", "setting": "[3]", "value": 105, "unit": "U/mg"}, {"measurement": "Amount of neutralized heparin (U/mg) 4", "setting": "[3]", "value": 112, "unit": "U/mg"}, {"measurement": "Amount of neutralized heparin (U/mg) 5", "setting": "[3]", "value": 110, "unit": "U/mg"}, {"measurement": "water solubility", "setting": "[2]", "value": "good water solubility"}]}, {"compound": "RRRRRRRRRRRRRHR [R15-2]", "values": [{"measurement": "Amount of neutralized heparin (U/mg) Mean ± SD", "setting": "[3]", "value": "110±1.342", "unit": "U/mg"}, {"measurement": "I (Anti-heparin index)", "setting": "[3]", "value": 4.66, "unit": "nmol/U"}, {"measurement": "Clotting time", "setting": "[3]", "value": "13.35 ± 0.56", "unit": "min"}, {"measurement": "Amount of neutralized heparin (U/mg) 1", "setting": "[3]", "value": 110, "unit": "U/mg"}, {"measurement": "Amount of neutralized heparin (U/mg) 2", "setting": "[3]", "value": 113, "unit": "U/mg"}, {"measurement": "Amount of neutralized heparin (U/mg) 3", "setting": "[3]", "value": 110, "unit": "U/mg"}, {"measurement": "Amount of neutralized heparin (U/mg) 4", "setting": "[3]", "value": 110, "unit": "U/mg"}, {"measurement": "Amount of neutralized heparin (U/mg) 5", "setting": "[3]", "value": 110, "unit": "U/mg"}, {"measurement": "water solubility", "setting": "[2]", "value": "good water solubility"}]}, {"compound": "RRRRRRRRRRRRRRRRRRRR [R20, (R)20]", "values": [{"measurement": "water solubility", "setting": "[2]", "value": "good water solubility"}]}]}
